# Measurements reported in PubChem BioAssay AID2006 (Sanford-Burnham Center for Chemical Genomics, 2009).
# Target: SUMO-conjugating enzyme UBC9 (Homo sapiens) (UniProt P63279)
# Assay: inhibitors of in vitro SUMOylation cascade, primary screen, biochemical, HTRF, uHTS (AID 2006)
# Details: HTRF SUMOylation assay, SAE1/SAE2 + UBC9, in vitro
# Chain of SUMO-conjugating enzyme UBC9 (Homo sapiens) (P63279 whole entry, looked up): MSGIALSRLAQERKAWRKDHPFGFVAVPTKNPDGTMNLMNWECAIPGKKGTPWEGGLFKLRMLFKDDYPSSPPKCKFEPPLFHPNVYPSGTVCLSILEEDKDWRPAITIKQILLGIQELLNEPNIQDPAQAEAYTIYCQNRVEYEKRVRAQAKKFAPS
row,IC50 [µM],SMILES
1,14,O=C1NC(=Nc2ccc3ccccc3c2)S/C1=C/c1ccco1
2,13.8,NS(=O)(=O)c1ccc(NC(=O)c2ccc(-c3ccccc3)cc2)cc1
3,37.9,O=C(CN1C(=O)S/C(=C\c2ccccc2)C1=O)NNC(=O)c1ccccc1O
4,11.1,O=C(O)c1ccc(/C=N/NC(=O)c2ccc(CN3c4cccc5cccc(c45)S3(=O)=O)cc2)cc1
